Data as given in patent US20160244436A1, “NOVEL FUNCTIONALIZED 5-(PHENOXYMETHYL)-1,3-DIOXANE ANALOGS EXHIBITING CYTOCHROME P450 INHIBITION AND THEIR METHOD OF USE” (CORTENDO AB (PUBL), priority 2013, published 2016).

Assay: Pharmacokinetic studies in the guinea pig (1 mg/kg IV, 10 mg/kg oral)
Assay type: in vivo
Method: Pharmacokinetic studies in the guinea pig were run using 1 mg/kg IV dosing (20% DMA, 40% TEG, 40% water) and 10 mg/kg oral dosing (2% Tween-80, 98% HPMC (1% water)).

- bioavailability (in vivo, 10 mg/kg oral vs 1 mg/kg IV): 184%
- AUC0-inf (oral, 10 mg/kg): 14.891 µg·h/mL
- AUC0-last (oral, 10 mg/kg): 8.231 µg·h/mL
- AUCExtra (oral, 10 mg/kg): 43.93%
- Cmax (oral, 10 mg/kg): 1.018 µg/mL
- MRT0-last (oral, 10 mg/kg): 5.56 h
- Tmax (oral, 10 mg/kg): 3 h
- t1/2 (oral, 10 mg/kg): 6.0 h
- DNAUC (0-inf) (oral, 10 mg/kg, dose-normalised AUC): 823.1
- Rsq (oral, 10 mg/kg, fit of terminal phase): 0.91
Compound: CC(=O)N1CCN(c2ccc(CO[C@H]3CO[C@](Cn4ccnc4)(c4ccc(Cl)cc4Cl)OC3)cc2)CC1 [drawing 113]
